Here are results for nine molecules from ChEMBL document CHEMBL4622966, “Synthesis of Novel Ciprofloxacin-Based Hybrid Molecules toward Potent Antimalarial Activity” (ACS Med Chem Lett, 2020).

Activity calls are given as the source filed them. No cut-off for these calls is given here. A value given as a limit tells only on which side of the number the result lay.

Series [1] can be described thus: Lipophilicity, log P of the compound. In kind it is physicochemical. Conditions: octanol/water.
A further series relates to Escherichia coli. Kind of series: Toxicity in Escherichia coli DH10B assessed as growth inhibition at 500 nM to 1 uM after 6 hrs. In kind it is organism-based, str. K-12 substr. DH10B. Conditions: in vivo, 0.5 µM.
Series [2] relates to Plasmodium falciparum. Kind of series: Potency index, ratio of chloroquine IC50 to test compound IC50 for antimalarial activity against CQ-resistant Plasmodium falciparum W2 infected in human erythrocytes after 48 hrs by SYBR Green1 dye based fluorescence assay. In kind it is functional.
Series [3] concerns Heme. In words: Binding affinity to monomeric heme at 100 nM to 4.5 uM after 24 hrs by UV-Visible Spectroscopic analysis.
The test system of series [4] is Plasmodium falciparum. Kind of series: Potency index, ratio of ciprofloxacin IC50 to test compound IC50 for antimalarial activity against CQ-sensitive Plasmodium falciparum 3D7 infected in human erythrocytes after 96 hrs by SYBR Green1 dye based fluorescence assay. In kind it is functional.
Series [5] concerns Plasmodium falciparum. In words: Resistance index, ratio of IC50 for antimalarial activity against CQ-resistant Plasmodium falciparum W2 infected in human erythrocytes after 48 hrs to IC50 for antimalarial activity against CQ-sensitive Plasmodium falciparum 3D7 infected in human erythrocytes after 48 hrs by SYBR Green1 dye based fluorescence assay. It is filed as functional.
Series [6] relates to Plasmodium falciparum. In words: Antimalarial activity against synchronized schizont stage of Plasmodium falciparum infected in human erythrocytes at 50 to 100 nM. In kind it is functional, organism-based.
In series [7] the test system is Plasmodium falciparum. In words: Antimalarial activity against CQ-sensitive Plasmodium falciparum 3D7 infected in human erythrocytes after 48 hrs by SYBR Green1 dye based fluorescence assay. In kind it is functional, organism-based. Conditions: 3D7, 48 h.
Series [8] concerns Plasmodium falciparum. Kind of series: Potency index, ratio of ciprofloxacin IC50 to test compound IC50 for antimalarial activity against CQ-resistant Plasmodium falciparum W2 infected in human erythrocytes after 48 hrs by SYBR Green1 dye based fluorescence assay. In kind it is functional.
Series [9] concerns Plasmodium falciparum. Kind of series: Potency index, ratio of ciprofloxacin IC50 to test compound IC50 for antimalarial activity against CQ-sensitive Plasmodium falciparum 3D7 infected in human erythrocytes after 48 hrs by SYBR Green1 dye based fluorescence assay. In kind it is functional.
For series [10], the system named is Plasmodium falciparum. In words: Antimalarial activity against CQ-sensitive Plasmodium falciparum 3D7 infected in human erythrocytes after 96 hrs by SYBR Green1 dye based fluorescence assay. It is filed as functional, organism-based. Conditions: 3D7, 96 h.
The subject of series [11] is Plasmodium falciparum. In words: Antimalarial activity against Plasmodium falciparum infected in human erythrocytes assessed as parasitemia at 1 to 10 nM after 96 hrs by SYBR Green1 dye based fluorescence assay. It is filed as functional, organism-based.
The test system of series [12] is Plasmodium falciparum. In words: Antimalarial activity against Plasmodium falciparum infected in human erythrocytes assessed as parasitemia at 1 to 10 nM after 48 hrs by SYBR Green1 dye based fluorescence assay. It is filed as functional, organism-based.
Series [13] relates to Erythrocyte. Kind of series: Hemolytic activity against human RBC infected with CQ-sensitive Plasmodium falciparum 3D7 at 10 to 45 uM. In kind it is ADME, cell-based.
Series [14] relates to Erythrocyte. In words: Hemolytic activity against uninfected human RBC at 10 to 45 uM. In kind it is ADME, cell-based.
Series [15] deals with Erythrocyte. Kind of series: Hemolytic activity against human RBC infected with CQ-resistant Plasmodium falciparum W2 at 10 to 45 uM. It is filed as ADME, cell-based.
Another series has as its system NIH3T3. Kind of series: Cytotoxicity against mouse NIH/3T3 cells up to 10 uM after 72 hrs by MTT assay. In kind it is cell-based. Conditions: nih3t3, 72 h. On the technique in general: Formazan colour is commonly taken as a measure of viable cells.
Series [16] concerns Plasmodium falciparum. Kind of series: Antimalarial activity against CQ-resistant Plasmodium falciparum W2 infected in human erythrocytes after 96 hrs by SYBR Green1 dye based fluorescence assay. Conditions: W2, 96 h. In kind it is functional, organism-based.
The test system of series [17] is Plasmodium falciparum. In words: Binding affinity to Gyrase in Plasmodium falciparum assessed as accumulation of single-stranded DNA binding protein at 25 nM after 96 hrs by Western blot analysis. In general terms: A western blot detects proteins with antibodies after separation by electrophoresis.
Series [18] concerns Plasmodium falciparum. Kind of series: Antimalarial activity against synchronized ring stage of Plasmodium falciparum infected in human erythrocytes at 50 to 100 nM. In kind it is functional, organism-based.
For series [19], the system named is Plasmodium falciparum. In words: Antiplasmodial activity against Plasmodium falciparum infected in human erythrocytes assessed as reduction in hemozoin size at 50 to 100 nM after 48 hrs by giemsa staining based light microscopic analysis. In kind it is functional, organism-based.
Series [20] has as its system Plasmodium falciparum. Kind of series: Antimalarial activity against CQ-resistant Plasmodium falciparum W2 infected in human erythrocytes after 48 hrs by SYBR Green1 dye based fluorescence assay. In kind it is functional, organism-based. The conditions noted are these: W2, 48 h.
For series [21], the system named is Plasmodium falciparum. In words: Potency index, ratio of ciprofloxacin IC50 to test compound IC50 for antimalarial activity against CQ-resistant Plasmodium falciparum W2 infected in human erythrocytes after 96 hrs by SYBR Green1 dye based fluorescence assay. In kind it is functional.
Series [22] has as its system Plasmodium falciparum. In words: Antimalarial activity against Plasmodium falciparum infected in human erythrocytes assessed as parasitemia at 1 to 15 uM after 48 hrs by SYBR Green1 dye based fluorescence assay. In kind it is functional, organism-based.
Series [23] concerns Plasmodium falciparum. In words: Antimalarial activity against Plasmodium falciparum infected in human erythrocytes assessed as parasitemia at 1 to 15 uM after 96 hrs by SYBR Green1 dye based fluorescence assay. In kind it is functional, organism-based.
For series [24], the system named is Plasmodium falciparum. In words: Binding affinity to Gyrase in Plasmodium falciparum assessed as accumulation of single-stranded DNA binding protein at 15 uM after 96 hrs by Western blot analysis.
Series [25] deals with Plasmodium falciparum. Kind of series: Antiplasmodial activity against Plasmodium falciparum infected in human erythrocytes assessed as reduction in hemozoin size at 30 nM after 48 hrs by giemsa staining based light microscopic analysis. It is filed as functional, organism-based.
Series [26] relates to Heme. In words: Binding affinity to monomeric heme after 24 hrs by UV-Visible Spectroscopic analysis.
Series [27] concerns Plasmodium falciparum. Kind of series: Antimalarial activity against CQ-sensitive Plasmodium falciparum 3D7 assessed as inhibition of parasite growth. It is filed as functional, organism-based.
The test system of series [28] is Plasmodium falciparum. In words: Antimalarial activity against CQ-resistant Plasmodium falciparum NF54-R assessed as inhibition of parasite growth. It is filed as functional, organism-based.

The logP is a log measure of how a compound divides between an organic and an aqueous phase. Lower therefore signals lower lipophilicity. In general, IC50 refers to the concentration that inhibits the measured activity by half. In the case of `CCOC(=O)c1cn(C2CC2)c2cc(N3CCN(c4ccnc5cc(Cl)ccc45)CC3)c(F)cc2c1=O`, the logP in [1] was determined as 5.02. Moreover, the Activity result in the series on Escherichia coli, in the series on Erythrocyte [13], in the series with Erythrocyte [14], in the series with Erythrocyte [15] and in the series with NIH3T3 was “Non-Toxic” each time. Moreover, the “Ratio IC50” value in the series with Plasmodium falciparum [2] is 3; in the series with Plasmodium falciparum [4], 1000; in the series on Plasmodium falciparum [5] it was 2.47; in the series on Plasmodium falciparum [8] it was 200 - 700; in the series on Plasmodium falciparum [9], 1000; in the series with Plasmodium falciparum [21], 200 - 700. The result in the series on Heme [3], in the series with Plasmodium falciparum [17] and with Plasmodium falciparum [19] was inactive. In addition, the result with Plasmodium falciparum [6], in the series on Plasmodium falciparum [11], with Plasmodium falciparum [12] and in the series with Plasmodium falciparum [18] was Active. Moreover, the IC50 is 0.0255 µM in the series on Plasmodium falciparum [7], 0.0135 µM with Plasmodium falciparum [10], 0.0306 µM in the series with Plasmodium falciparum [16] and 0.0632 µM with Plasmodium falciparum [20].

With `O=C(O)c1cn(C2CC2)c2cc(N3CCNCC3)c(F)cc2c1=O` [CIPROFLOXACIN], the result with Heme [3] and with Plasmodium falciparum [22] was inactive. Further, the half-maximal inhibitory concentration (IC50) amounted to 45.4 µM in the series with Plasmodium falciparum [7], 26.3 µM in the series with Plasmodium falciparum [10], 22.9 µM in the series on Plasmodium falciparum [16] and 37.1 µM in the series on Plasmodium falciparum [20]. The result in the series on Plasmodium falciparum [23] and in the series with Plasmodium falciparum [24] was Active.

In the case of `CCN(CC)CCCC(C)Nc1ccnc2cc(Cl)ccc12` (stereo not given), the result with Plasmodium falciparum [25] was Active. Further, the Activity entry in the series with Heme [26] is “Dose-dependent effect”.

The molecule `CCOC(=O)c1cn(C2CC2)c2cc(N3CCN(C(=O)/C=C/c4ccccc4)CC3)c(F)cc2c1=O` yielded a logP in series [1] of 3.81. Moreover, the values for the IC50 in the series with Plasmodium falciparum [7] and in the series with Plasmodium falciparum [10] were 9.11 µM and 4.79 µM, respectively. Also, the Activity result in the series on Erythrocyte [13], with Erythrocyte [14] and in the series on Erythrocyte [15] was “Non-Toxic” throughout.

For `Cc1c(F)c(N2CCNC(C)C2)cc2c1c(=O)c(C(=O)O)cn2C1CC1` (stereo not given) [GREPAFLOXACIN], the 50% inhibitory concentration (IC50) with Plasmodium falciparum [27] and in the series with Plasmodium falciparum [28] was above 10 µM throughout.

In the case of `CCOC(=O)c1cn(C2CC2)c2cc(N3CCN(c4c5ccc(Cl)cc5nc5ccc(OC)cc45)CC3)c(F)cc2c1=O`, the logP in [1] worked out at 6.31. Moreover, the IC50 in the series on Plasmodium falciparum [7] turned out to be 0.359 µM; in the series on Plasmodium falciparum [10], 0.311 µM. Further, the Activity entry with Erythrocyte [13], with Erythrocyte [14] and with Erythrocyte [15] was “Non-Toxic” in each case.

With `CCOC(=O)c1cn(C2CC2)c2cc(N3CCN(S(=O)(=O)c4ccc(C(F)(F)F)cc4)CC3)c(F)cc2c1=O`, the logP in series [1] amounted to 4.29. In addition, the “Ratio IC50” value in the series on Plasmodium falciparum [2] is 7; in the series with Plasmodium falciparum [4], 1000; in the series on Plasmodium falciparum [5], 3.88; with Plasmodium falciparum [8], 200 - 700; in the series on Plasmodium falciparum [9], 1000; with Plasmodium falciparum [21], 200 - 700. Also, the IC50 with Plasmodium falciparum [7] was 0.0376 µM; with Plasmodium falciparum [10], 0.0148 µM; in the series on Plasmodium falciparum [16] it was 0.0334 µM; with Plasmodium falciparum [20] it was 0.146 µM. Besides, the Activity result in the series on Erythrocyte [13], in the series on Erythrocyte [14] and with Erythrocyte [15] was “Non-Toxic” throughout.

Take `COc1c(N2C[C@@H]3CCCN[C@@H]3C2)c(F)cc2c(=O)c(C(=O)O)cn(C3CC3)c12` [MOXIFLOXACIN]: the IC50 in the series with Plasmodium falciparum [27] and with Plasmodium falciparum [28] was above 10 µM in each case.

With `COc1c(N2CCNC(C)C2)c(F)cc2c(=O)c(C(=O)O)cn(C3CC3)c12` (stereo not given) [GATIFLOXACIN], the IC50 with Plasmodium falciparum [27] and in the series on Plasmodium falciparum [28] was above 10 µM throughout.
